One assay has as its system A. oris MG-1. The assay is described as follows: Minimum inhibitory concentration, MG-1 strain. Format: cell-based. As to conditions: Actinomyces oris, MG1; BHI, 96-well plates, 18 hours. As to the method:
Two validation assays were performed for each hit molecule that measured: (i) the minimum inhibitory concentration (MIC) required to prevent growth of the MG-1 and ΔsrtA/ΔgspA strains, and (ii) their in vitro inhibitory activity against the enzymatic activity of the A. oris and S. aureus sortase enzymes. Initially, the selective growth effect originally observed in the HTS that used 384-well plates was more rigorously defined by determining each molecule’s MIC value for the MG-1 and ΔsrtA/ΔgspA strains. Cells were cultured in 100 µL media containing 2-fold dilutions of each small molecule between 320 µM and 0.039 µM (approximately 134 µg mL^−1 to […]).
Minimum inhibitory concentration (MIC) values were determined for molecules 1–6 according to the Clinical Laboratory Standard Institutes’ (CLSI) Methods for Dilution Antimicrobial Susceptibility Tests for Bacteria that Grow Aerobically, Approved standards-ninth edition; M07-A9 Vol. 32 No. 2 with the following alterations. Overnight cultures of MG-1 and ΔgspAΔsrtA were diluted to OD600 values of 0.01 before being added to BHI containing the appropriate molecule in 96-well plates. Mueller-Hinton broth was not usable because A. oris is a fastidious bacterium. Plates were sealed with Breatheasy seals and incubated for 18 hours, as A. oris has a doubling time of 2 hours. Plate seals were removed and OD600 values measured. Each plate was run with a positive control (cells, media, and Penicillin G), negative control (media and cells only), and contamination control (media only).

The target of the next assay is AoSrtA (Actinomyces oris, UniProt A0A0X8K1J2). Description: FRET-based in vitro sortase activity assay, AoSrtA. It counts as biochemical. As to the method:
(§1) The ability of the hit molecules to inhibit sortase activity was measured in vitro using an established FRET-based assay[13] that measures the ability of each enzyme to cleave a fluorogenic peptide substrate; Abz-LAQTG-Dap(Dnp)-NH2 and Abz-LPETG-Dap(Dnp)-NH2, substrates for ^AoSrtA and ^SaSrtA, respectively. Each enzyme cleaves between the threonine and glycine bond in these peptides, leading to a measurable increase in fluorescence (see Methods). The IC50 value of each compound was determined for both the ^AoSrtA and ^SaSrtA enzymes.
(§2) IC50 values for the six hit molecules against the ^AoSrtA and ^SaSrtA enzymes were determined as previously described, with some modifications. Briefly, molecules 1–6 were serial diluted 2-fold (from 1.25 mM to 2.44 µM, 500 µM to 0.98 µM final assay concentration) into 25 µM ^AoSrtA or ^SaSrtA (final assay concentration 10 µM) in buffer A (20 mM HEPES pH 7, 5 mM CaCl2, 0.05% TWEEN, 30% DMSO). The final DMSO concentration was […] in the assay. Samples were incubated 1 hour at room temperature and aliquoted into a 384-well plate (EK-30892). Thirty microliters of FRET peptide (Peptide 2.0) in buffer B (20 mM HEPES pH 7, 5 mM CaCl2, 0.05% TWEEN), […] for ^SaSrtA or Abz-LAQTG-Dap(Dnp)-NH2 for ^AoSrtA was added and the plate was immediately placed into a Flexstation II plate reader (Molecular Devices) and fluorescence was recorded at 335/420 nm excitation/emission wavelengths after 5 seconds of plate shaking to mix the reaction components. Plate fluorescence was measured over the course of 30 minutes.

Another assay has as its target SaSrtA (Staphylococcus aureus, UniProt Q2FV99). Description: FRET-based in vitro sortase activity assay, SaSrtA. It counts as biochemical. As to the method:
as §1, §2

The next assay has as its system A. oris ΔgspA. Description: Cell fractionation and immunoblot with α-FimA (type 2 pilus). As to conditions: 10 µM, 3 hours, ΔgspA strain, versus control. Format: cell-based, Actinomyces oris. The procedure: To understand the physiological effects that these molecules have on the display of pili and surface proteins on the surface of A. oris, we grew cells with 10 µM of each hit molecule and assessed sortase activity by western blot and electron microscopy as previously reported. To avoid a confounding problem that inhibiting ^AoSrtA causes cell arrest, we performed the experiments in a mutant devoid of gspA; the aforementioned genetic suppressor of sortase lethality.
Cell fractionation and Western blotting were followed according to a published protocol. Briefly, the cultures of A. oris strains grown in BHI at 37 °C until OD600 of 0.25 were aliquoted, and bacterial aliquots were treated with 10 µM of individual sortase inhibitors for 3 hours. Bacterial cultures were then normalized to equal OD600, and cells were fractionated into culture medium (S), cell wall (W), and protoplast fractions. Isolated fractions were subjected to protein precipitation by 7.5% trichloroacetic acid, followed by washing with cold acetone, except for the protoplast fractions. Protein samples were dissolved in hot sodium dodecyl sulfate (SDS)-containing sample buffer, separated by 3–12% Tris-glycine gradient gels, and subjected to immunoblotting with specific antisera (α-FimA, 1:10,000 dilution; α-GspA, α-MdbA, α-SrtC2 and α-SrtA, 1:4000 dilution), followed by chemo-luminescence detection.
In general terms: In western blotting, separated proteins are transferred to a membrane and probed.

Where [1] appears, read: IC50 (A. oris), AoSrtA 10 µM, Abz-LAQTG-Dap(Dnp)-NH2, 1 hour preincubation.
Setting [2] is: IC50 values, range over compounds, range for both AoSrtA and SaSrtA, in µM.

Values after ≈ are worked out from the molar mass of the structure shown.

SaSrtA, sequence (Q2FV99 whole entry): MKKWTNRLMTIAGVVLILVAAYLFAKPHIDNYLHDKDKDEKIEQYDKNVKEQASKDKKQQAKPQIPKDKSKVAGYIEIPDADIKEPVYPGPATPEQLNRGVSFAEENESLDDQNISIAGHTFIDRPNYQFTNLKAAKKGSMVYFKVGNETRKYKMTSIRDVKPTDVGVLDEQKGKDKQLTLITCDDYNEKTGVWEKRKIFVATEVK
AoSrtA, sequence (A0A0X8K1J2 entry or part of it): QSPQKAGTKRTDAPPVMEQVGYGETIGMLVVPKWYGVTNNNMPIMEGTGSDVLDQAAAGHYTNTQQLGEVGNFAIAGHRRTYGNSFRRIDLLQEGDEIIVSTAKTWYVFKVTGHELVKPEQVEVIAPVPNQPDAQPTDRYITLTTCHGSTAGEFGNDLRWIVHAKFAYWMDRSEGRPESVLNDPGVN

In the assay on A. oris MG-1, `Cc1nc(COc2ccc(F)cc2)sc1CC(=O)Nc1nc2c(s1)CC(C)CC2` (stereo not drawn) [Compound 6] displayed an MIC of 2.1 µg/mL (≈ 4.87 µM). For the same compound, the IC50 on AoSrtA (setting [1]) was 139 µM; against AoSrtA (setting [2]), 73 to 170 µM; at SaSrtA it was 125 µM. The “FimA polymers / type 2 pilus production (immunoblot α-FimA)” value (from here on “FimA polymers / type 2 pilus production”) in the assay on A. oris ΔgspA is reported as “little effect on type 2 pilus production”.

In the assay on A. oris MG-1, `CCc1ccc2nc(N(Cc3cccnc3)C(=O)c3ccc([N+](=O)[O-])o3)sc2c1` [Compound 3] displayed an MIC of 8.2 µg/mL (≈ 20.1 µM). Also, the IC50 is 73.5 µM against AoSrtA (setting [1]), 73 to 170 µM on AoSrtA (setting [2]) and 220 µM at SaSrtA. In the assay on A. oris ΔgspA, the “FimA polymers / type 2 pilus production” value was “decreased FimA polymers”.

As for `COc1ccc2nc(N(Cc3ccccc3)C(=O)c3ccc([N+](=O)[O-])o3)sc2c1` [Compound 4], the lowest concentration to inhibit growth in the assay with A. oris MG-1 (MIC) was 16.4 µg/mL (≈ 40.1 µM). The IC50 was 171 µM on AoSrtA (setting [1]), 73 to 170 µM at AoSrtA (setting [2]) and 488 µM against SaSrtA. In addition, the “FimA polymers / type 2 pilus production” value with A. oris ΔgspA is “decreased FimA polymers”.

A word on the MIC: it is the lowest concentration that inhibits growth of the organism. The low end stands for greater potency, the high end for weaker potency. As a reminder, the IC50 is the concentration that inhibits the measured activity by half. Low readings indicate inhibition by little substance, high ones a need for much substance.

Source of the values: paper PMC7244523, “A Cell-based Screen in Actinomyces oris to Identify Sortase Inhibitors” (Scientific Reports, 2020).
